# In patent US11857519B2, “Compounds and methods for the targeted degradation of enhancer of zeste homolog 2 polypeptide” (Arvinas Operations, Inc., priority 2016, dated 2024):
# Target: T1, EZH2 (Homo sapiens, UniProt Q15910)
# T1 construct: Protocol of the Cellular Assay of Target Protein Degradation (VCaP Cells, ELISA); endogenous in cells; host or cells: VCaP cells
# Experiment: Cellular assay of target protein degradation (VCaP cells, ELISA)
# Type: cell-based
# Conditions: 4 hours, protein degradation range at indicated concentration (relative to DMSO control)
# Experimental: Protocol of the Cellular Assay of Target Protein Degradation (VCaP Cells, ELISA).
# For detection Cell Signaling PathScan Sandwich ELISA Catalog #12850 Lot 11 was used. VCaP cells were cultured in ATCC DMEM+ATCC FBS and plated 40,000/well 100 μl/well in RPMI P/S with 5% CSS Omega (bovine) serum into a 96 well plate. The cells were grown for a minimum of 3 days, dosed with compounds in 0.1% DMSO (diluted with 5% CSS) and incubated with aspiration for 4 hours. 100 μl of 1× Cell Signaling lysis buffer #9803 (36 mL dH2O+4 mL Cell Signaling lysis buffer) was added. The incubation was placed on cold room shaker for 10 minutes at speed 8-9. 5 μl to 100 μL of Diluent was transferred to ELISA plate (0.15 μg/mL−0.075 μg/mL) and stored at 4° C. overnight on cold room shaker speed 5 (gentle swirl) and then shaken next morning at 37° C. for 30 minutes. The preparation was washed 4×200 μl with ELISA wash buffer and aspirated with eight-channel aspirator. 100 μl/well of target protein detection antibody was added after, which the preparation was covered and shaken at 37° C. for 1 hour. 100 μl TMB was added, and the mixture was shaken for 5 min while under observation. When TMB turned light blue, 100 μl of Stop solution was added, and the mixture was shaken and read at 450 nm. Also read at 562 nm for background subtraction.
# T1 sequence (Q15910 whole entry): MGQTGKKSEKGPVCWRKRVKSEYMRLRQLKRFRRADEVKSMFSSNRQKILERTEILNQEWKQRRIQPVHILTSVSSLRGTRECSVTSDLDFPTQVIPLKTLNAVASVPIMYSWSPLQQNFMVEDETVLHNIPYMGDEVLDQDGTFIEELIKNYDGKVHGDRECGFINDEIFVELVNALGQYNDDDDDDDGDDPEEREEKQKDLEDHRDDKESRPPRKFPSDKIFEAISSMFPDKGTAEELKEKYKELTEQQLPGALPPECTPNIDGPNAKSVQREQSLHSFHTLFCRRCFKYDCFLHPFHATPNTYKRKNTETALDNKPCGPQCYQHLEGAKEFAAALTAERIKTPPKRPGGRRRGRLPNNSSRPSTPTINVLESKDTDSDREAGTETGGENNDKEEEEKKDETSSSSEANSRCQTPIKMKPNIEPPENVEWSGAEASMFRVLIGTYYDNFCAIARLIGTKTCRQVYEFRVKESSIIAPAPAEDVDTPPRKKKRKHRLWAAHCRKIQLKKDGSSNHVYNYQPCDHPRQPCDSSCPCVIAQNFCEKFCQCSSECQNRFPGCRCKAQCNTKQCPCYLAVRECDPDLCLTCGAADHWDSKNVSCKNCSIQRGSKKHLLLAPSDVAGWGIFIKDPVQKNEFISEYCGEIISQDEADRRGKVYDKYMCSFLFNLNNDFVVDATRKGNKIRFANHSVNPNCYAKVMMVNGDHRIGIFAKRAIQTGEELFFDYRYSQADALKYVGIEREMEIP
# T1 sequence (O75530 whole entry partner): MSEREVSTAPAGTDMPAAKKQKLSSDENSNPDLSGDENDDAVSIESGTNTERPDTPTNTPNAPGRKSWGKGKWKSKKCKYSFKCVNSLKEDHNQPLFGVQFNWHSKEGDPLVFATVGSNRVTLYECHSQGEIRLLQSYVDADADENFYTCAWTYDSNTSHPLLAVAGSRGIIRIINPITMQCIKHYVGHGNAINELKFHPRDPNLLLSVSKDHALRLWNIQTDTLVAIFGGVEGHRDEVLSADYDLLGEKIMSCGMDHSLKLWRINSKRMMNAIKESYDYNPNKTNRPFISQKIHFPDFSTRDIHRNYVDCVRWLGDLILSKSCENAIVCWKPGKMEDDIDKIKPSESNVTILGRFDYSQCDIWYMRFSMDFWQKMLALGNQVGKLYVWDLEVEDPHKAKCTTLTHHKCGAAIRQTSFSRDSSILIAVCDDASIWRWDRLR
# T1 sequence (Q15022 whole entry partner): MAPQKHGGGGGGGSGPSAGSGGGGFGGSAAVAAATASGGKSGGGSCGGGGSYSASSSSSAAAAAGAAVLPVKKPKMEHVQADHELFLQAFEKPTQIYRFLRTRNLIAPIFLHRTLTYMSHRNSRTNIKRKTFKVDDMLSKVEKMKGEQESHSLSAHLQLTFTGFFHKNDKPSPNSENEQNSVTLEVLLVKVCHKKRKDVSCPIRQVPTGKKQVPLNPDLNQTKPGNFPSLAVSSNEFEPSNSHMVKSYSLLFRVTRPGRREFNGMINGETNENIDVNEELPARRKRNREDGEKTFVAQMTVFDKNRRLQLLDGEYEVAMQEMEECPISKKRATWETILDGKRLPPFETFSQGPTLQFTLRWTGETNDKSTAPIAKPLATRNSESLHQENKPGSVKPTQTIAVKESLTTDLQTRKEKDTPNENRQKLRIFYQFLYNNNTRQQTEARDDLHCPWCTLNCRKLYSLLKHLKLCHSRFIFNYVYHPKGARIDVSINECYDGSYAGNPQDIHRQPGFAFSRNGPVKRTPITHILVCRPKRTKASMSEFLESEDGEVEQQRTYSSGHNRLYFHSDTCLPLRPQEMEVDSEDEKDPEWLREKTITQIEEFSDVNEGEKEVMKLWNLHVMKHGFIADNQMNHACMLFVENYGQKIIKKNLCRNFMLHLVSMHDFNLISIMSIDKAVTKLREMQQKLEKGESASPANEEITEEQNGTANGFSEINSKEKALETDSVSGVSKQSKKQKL
row,SMILES,percent target protein degradation class
1,"CCN(c1cc(-c2ccc(OCCOCCOCCOCCOCCOCCOCCNc3cccc4c3C(=O)N(C3CCC(=O)NC3=O)C4=O)cc2)cc(C(=O)NCc2c(C)cc(C)[nH]c2=O)c1C)C1CCOCC1 (stereo not shown) [Compound 20, N-[(4,6-dimethyl-2-oxo-1,2-dihydropyridin-3-yl)methyl]-5-[4-({1-[2-(2,6-dioxopiperidin-3-yl)-1,3-dioxo-2,3-dihydro-1H-isoindol-4-yl]-4,7,10,13,16,19-hexaoxa-1-azahenicosan-21-yl}oxy)phenyl]-3-[ethyl(oxan-4-yl)amino]-2-methylbenzamide]",B (B = degradation between 30% and 60%)
2,"Cc1cc(C)c(CNC(=O)c2c(C)n(C(C)C3CCN(C(=O)COCCOCCOCCOCCOCCNc4cccc5c4C(=O)N(C4CCC(=O)NC4=O)C5=O)CC3)c3ccccc23)c(=O)[nH]1 (stereo not shown) [Compound 12, N-[(4,6-dimethyl-2-oxo-1,2-dihydropyridin-3-yl)methyl]-1-[1-(1-{1-[2-(2,6-dioxopiperidin-3-yl)-1,3-dioxo-2,3-dihydro-1H-isoindol-4-yl]-4,7,10,13,16-pentaoxa-1-azaoctadecanoyl}piperidin-4-yl)ethyl]-2-methyl-1H-indole-3-carboxamide]",B (B = degradation between 30% and 60%)
3,"Cc1cc(C)c(CNC(=O)c2c(C)n(C(C)C3CCN(C(=O)COCCOCCOCCOCCNc4cccc5c4C(=O)N(C4CCC(=O)NC4=O)C5=O)CC3)c3ccccc23)c(=O)[nH]1 (stereo not shown) [Compound 10, N-[(4,6-dimethyl-2-oxo-1,2-dihydropyridin-3-yl)methyl]-1-[1-(1-{1-[2-(2,6-dioxopiperidin-3-yl)-1,3-dioxo-2,3-dihydro-1H-isoindol-4-yl]-4,7,10,13-tetraoxa-1-azapentadecanoyl}piperidin-4-yl)ethyl]-2-methyl-1H-indole-3-carboxamide]",B (B = degradation between 30% and 60%)
4,"CCN(c1cc(-c2ccc(CN3CCC(CN4CCN(c5ccc6c(c5)C(=O)N(C5CCC(=O)NC5=O)C6=O)CC4)CC3)cc2)cc(C(=O)NCc2c(C)cc(C)[nH]c2=O)c1C)C1CCOCC1 (stereo not shown) [Compound 115, N-((4,6-dimethyl-2-oxo-1,2-dihydiopyridin-3-yl)methyl)-4′-((4-((4-(2-(2,6-dioxopiperidin-3-yl)-1,3-dioxoisoindolin-5-yl)piperazin-1-yl)methyl)piperidin-1-yl)methyl)-5-(ethyl(tetrahydro-2H-pyran-4-yl)amino)-4-methyl-[1,1′-biphenyl]-3-carboxamide]",B (B = degradation between 30% and 60%)
5,"CCN(c1cc(-c2ccc(OCCCOCCCOCCCOc3cc(-c4scnc4C)ccc3CNC(=O)[C@@H]3C[C@@H](O)CN3C(=O)[C@H](C(C)C)N3Cc4ccccc4C3=O)cc2)cc(C(=O)NCc2c(C)cc(C)[nH]c2=O)c1C)C1CCOCC1 [Compound 39, (2S,4R)-N-({2-[3-(3-{3-[4-(3-{[(4,6-dimethyl-2-oxo-1,2-dihydropyridin-3-yl)methyl]carbamoyl}-5-[ethyl(oxan-4-yl)amino]-4-methylphenyl)phenoxy]propoxy}propoxy)propoxy]-4-(4-methyl-1,3-thiazol-5-yl)phenyl}methyl)-4-hydroxy-1-[(2S)-3-methyl-2-(1-oxo-2,3-dihydro-1H-isoindol-2-yl)butanoyl]pyrrolidine-2-carboxamide]",B (B = degradation between 30% and 60%)
6,"CCN(c1cc(-c2ccc(OCCCCCCOc3cc(C(C(=O)N4C[C@H](O)C[C@H]4C(=O)N[C@@H](C)c4ccc(-c5scnc5C)cc4)C(C)C)on3)cc2)cc(C(=O)NCc2c(C)cc(C)[nH]c2=O)c1C)C1CCOCC1 (stereo partly drawn) [Compound 106, (2S,4R)-1-(2-(3-((6-((3′-(((4,6-dimethyl-2-oxo-1,2-dihydropyridin-3-yl)methyl)carbamoyl)-5′-(ethyl(tetrahydro-2H-pyran-4-yl)amino)-4′-methyl-[1,1′-biphenyl]-4-yl)oxy)hexyl)oxy)isoxazol-5-yl)-3-methylbutanoyl)-4-hydroxy-N-((S)-1-(4-(4-methylthiazol-5-yl)phenyl)ethyl)pyrrolidine-2-carboxamide]",A (A = degradation more than 60%)
7,"CCN(c1cc(-c2ccc(N3CCN(CCCCOCC(=O)N[C@H](C(=O)N4C[C@H](O)C[C@H]4C(=O)N[C@@H](C)c4ccc(-c5scnc5C)cc4)C(C)(C)C)CC3)cc2)cc(C(=O)NCc2c(C)cc(C)[nH]c2=O)c1C)C1CCOCC1 [Compound 59, (2S,4R)-1-((S)-2-(2-(4-(4-(3′-(((4,6-dimethyl-2-oxo-1,2-dihydropyridin-3-yl)methyl)carbamoyl)-5′-(ethyl(tetrahydro-2H-pyran-4-yl)amino)-4′-methyl-[1,1′-biphenyl]-4-yl)piperazin-1-yl)butoxy)acetamido)-3,3-dimethylbutanoyl)-4-hydroxy-N-((S)-1-(4-(4-methylthiazol-5-yl)phenyl)ethyl)pyrrolidine-2-carboxamide]",B (B = degradation between 30% and 60%)
8,"Cc1cc(C)c(CNC(=O)c2cc(-c3ccc(CN4CCN(CCOCC(=O)N[C@H](C(=O)N5C[C@H](O)C[C@H]5C(=O)NCc5ccc(-c6scnc6C)cc5)C(C)(C)C)CC4)cc3)cc3c2ccn3C2CCCC2)c(=O)[nH]1 [Compound 1, 1-cyclopentyl-N-[(4,6-dimethyl-2-oxo-1,2-dihydropyridin-3-yl)methyl]-6-[4-({4-[2-({[(2S)-1-[(2S,4R)-4-hydroxy-2-({[4-(4-methyl-1,3-thiazol-5-yl)phenyl]methyl}carbamoyl)pyrrolidin-1-yl]-3,3-dimethyl-1-oxobutan-2-yl]carbamoyl}methoxy)ethyl]piperazin-1-yl}methyl)phenyl]-1H-indole-4-carboxamide]",B (B = degradation between 30% and 60%)
9,"CCN(c1cc(-c2ccc(OCCCCCOc3cc(C(C(=O)N4C[C@H](O)C[C@H]4C(=O)N[C@@H](C)c4ccc(-c5scnc5C)cc4)C(C)C)on3)cc2)cc(C(=O)NCc2c(C)cc(C)[nH]c2=O)c1C)C1CCOCC1 (stereo partly drawn) [Compound 104, (2S,4R)-1-(2-(3-(5-(3′-((4,6-dimethyl-2-oxo-1,2-dihydropyridin-3-yl)methylcarbamoyl)-5′-(ethyl(tetrahydro-2H-pyran-4-yl)amino)-4′-methylbiphenyl-4-yloxy)pentyloxy)isoxazol-5-yl)-3-methylbutanoyl)-4-hydroxy-N—((S)-1-(4-(4-methylthiazol-5-yl)phenyl)ethyl)pyrrolidine-2-carboxamide]",A (A = degradation more than 60%)
10,"Cc1cc(C)c(CNC(=O)c2c(C)n(C(C)C3CCN(C(=O)COCCOCCOCCNc4cccc5c4C(=O)N(C4CCC(=O)NC4=O)C5=O)CC3)c3ccccc23)c(=O)[nH]1 (stereo not shown) [Compound 7, N-[(4,6-dimethyl-2-oxo-1,2-dihydropyridin-3-yl)methyl]-1-[1-(1-{1-[2-(2,6-dioxopiperidin-3-yl)-1,3-dioxo-2,3-dihydro-1H-isoindol-4-yl]-4,7,10-trioxa-1-azadodecanoyl}piperidin-4-yl)ethyl]-2-methyl-1H-indole-3-carboxamide]",B (B = degradation between 30% and 60%)
11,"CCN(c1cc(-c2ccc(OCCOCCNc3cccc4c3C(=O)N(C3CCC(=O)NC3=O)C4=O)cc2)cc(C(=O)NCc2c(C)cc(C)[nH]c2=O)c1C)C1CCOCC1 (stereo not shown) [Compound 34, N-[(4,6-dimethyl-2-oxo-1,2-dihydropyridin-3-yl)methyl]-5-{4-[2-(2-{[2-(2,6-dioxopiperidin-3-yl)-1,3-dioxo-2,3-dihydro-1H-isoindol-4-yl]amino}ethoxy)ethoxy]phenyl}-3-[ethyl(oxan-4-yl)amino]-2-methylbenzamide]",B (B = degradation between 30% and 60%)
12,"CCN(c1cc(-c2ccc(OCCOCCOCCOCCOCCOc3ccc(CCN4CC[C@@H]5CCN(C(=O)[C@@H](NC(=O)[C@H](C)NC)C6CCCCC6)[C@@H]5C4)cc3)cc2)cc(C(=O)NCc2c(C)cc(C)[nH]c2=O)c1C)C1CCOCC1 (racemic) [Compound 29, 5-(4-{[1-(4-{2-[(3aR,7aS)-1-[(2S)-2-cyclohexyl-2-[(2S)-2-(methylamino)propanamido]acetyl]-octahydro-1H-pyrrolo[2,3-c]pyridin-6-yl]ethyl]phenyl)-1,4,7,10,13-pentaoxapentadecan-15-yl]oxy}phenyl)-N-[(4,6-dimethyl-2-oxo-1,2-dihydropyridin-3-yl)methyl]-3-[ethyl(oxan-4-yl)amino]-2-methylbenzamide]",B (B = degradation between 30% and 60%)
13,"CCN(c1cc(-c2ccccc2OCCOCCOCCOCCOCCOCCNc2cccc3c2C(=O)N(C2CCC(=O)NC2=O)C3=O)cc(C(=O)NCc2c(C)cc(C)[nH]c2=O)c1C)C1CCOCC1 (stereo not shown) [Compound 25, N-[(4,6-dimethyl-2-oxo-1,2-dihydropyridin-3-yl)methyl]-5-[2-({1-[2-(2,6-dioxopiperidin-3-yl)-1,3-dioxo-2,3-dihydro-1H-isoindol-4-yl]-4,7,10,13,16-pentaoxa-1-azaoctadecan-18-yl}oxy)phenyl]-3-[ethyl(oxan-4-yl)amino]-2-methylbenzamide]",B (B = degradation between 30% and 60%)
